Laboratory results reported in patent US11667552B2, “Silver ion biocide delivery system” (priority 2018, dated 2023).

Assays:
[1] = Silver ion concentration in effluent of water passed through a packed bed of silver material
Description: In this method, water is passed through a bed of silver chloride which releases silver chloride into the water stream as it flows through the bed.

[2] = Excerpt: Another method of releasing silver ion in a water stream is the use of metal oxides, carbonates, and salts containing silver. These metal salts may include, but are not limited to, metal oxides, metal halides, or metal salts containing silver, and/or metallic silver, or a combination, mixture or alloy of metals containing silver.
Certain embodiments can be designed with internal design elements to compensate for decreasing volume of material as it is used during operation, without the need to use springs and associated hardware.

| silver ion in effluent from the AgCl bed ([1]; typical, depends on material morphology, temperature, pH) | Max Theoretical Conc (ug salt/L) [2] | theoretical solubility limit [2] | SMILES | Effluent Conc. Range Packed Bed (ug Ag^+/l) [1] [µg/L] |
| --- | --- | --- | --- | --- |
| – | – | – | [Br][Ag] [Silver Bromide] | 5 to 100 |
| about 100 μg/l | 1,900 ug/l | about 3 mg/l | [Cl][Ag] [Silver Chloride] | 200 to 800 |
